{
  "source": "patent US5430057A",
  "about": "“Parenteral busulfan for treatment of malignant disease” (priority 1993, dated 1995)",
  "key": {"erythrocytes": {"test_system": "erythrocytes", "details": "cited from earlier work"}, "[1]": {"assay": "Solubility of busulfan in various solvent systems (HPLC)", "assay_type": "physicochemical", "details": "acetone, organic solvent or mixture"}, "[2]": {"assay": "Equilibrium solubility studies", "assay_type": "physicochemical", "details": "anhydrous dma, organic solvent or mixture", "description": "An excess amount of busulfan was added to each solution and the mixtures were placed on a rotating mixer (Tube Rotator™, Scientific Equipment Products, Baltimore, Md.). […] For the DMA/PEG-400 aqueous vehicle, a slightly modified approach had to be taken, since DMA readily dissolved the ACRO LC 25 filter. After dissolving the busulfan in DMA, the busulfan-DMA solution was mixed with 40% PEG-400/40% water and filtered through a 0.45 μm silver filter (Nuclepore Corp., Pleasanton, Calif.) fitted to a syringe assembly. After derivatization with DDTC, the busulfan concentration was determined by HPLC as above."}, "[3]": {"assay": "Stability of busulfan formulations on storage / after mixing", "assay_type": "physicochemical", "description": "Stability of the Various Busulfan Formulations. The physical and chemical stabilities of the various parenteral busulfan formulations were examined as follows: First, busulfan was dissolved at a concentration of 25 mg/ml in DMA only (\"stock solution\") and incubated at 4° C. at 22° C. and at 40°C. Starting at time zero, then weekly up to 10 weeks, samples were withdrawn and analyzed for busulfan concentration by HPLC. Second, the busulfan-DMA was diluted with PEG-400/water to give final concentrations of DMA:PEG-400:water of 20:40:40 and final busulfan concentrations of 2-10 mg/ml. These formulations were subsequently analyzed by HPLC immediately after mixing and then hourly for eight hours. Third, busulfan formulation mixtures were diluted in normal saline to a final busulfan concentration of 1 mg/ml. The preparations were then introduced into infusion bags (Viaflex™ Baxter Healthcare Corp Deerfield, Id.), and allowed to run through a parenteral infusion set at a rate of 1 ml/min. Samples were collected at 0, 0.5, 1.0, 2.0, 5.0, 7.0, 9.0, and 12 hours and analyzed for busulfan by HPLC as above.\nThe drug was first dissolved in DMA at 25 mg/ml. Different aliquots were stored at 4° C., at 22° C., and at 40°C. From time 0 and then weekly, samples were analyzed for busulfan drug degradation over at least 15 weeks of observation. […] The stability of busulfan in the complete 20% DMA/40% PEG-400/40% water was also studied for the following different busulfan concentrations, 2, 3, 5, 8, and 10 mg/ml. At 2 and 3 mg/ml the busulfan was stable for the duration of the 8 hour observation period in this solvent system."}, "human erythrocytes": {"test_system": "human erythrocytes", "assay": "Hemolysis studies", "assay_type": "cell-based", "details": "in words", "description": "The procedure of Reed and Yalkowsky was employed for the studies of hemolytic potential of the different preparations, and the LD50 values of the various formulations were evaluated (Reed et al., 1985).\nVariable amounts of whole blood (citrated) were added to 0.05 ml of the drug formulations in ratios of 1:1 (v/v), 1:3, 1:5, 1:7, and 1:9. The mixtures were vortexed for 10 seconds and then incubated for 2 minutes at 25°C. Five ml normal saline was then added to this blend to quench further lysis of the erythrocytes by rendering the preparation nearly isotonic. The mixture was again vortexed for 10 seconds and centrifuged for 5 minutes at 3,000 r.p.m. (Beckman Model TJ-6 Centrifuge, Beckman Instruments Inc., Palo Alto, Calif.). The supernatant was carefully aspirated and discarded. The packed erythrocytes were washed once more at room temperature with one volume of normal saline. After centrifugation, the supernatant was again carefully aspirated and discarded. […] The absorbance of the supernatant was subsequently measured at 540 nm after a 1:3 dilution with distilled water° Normal saline was assayed in parallel as a standard. The fraction of […] was defined as the absorbance reading of the respective drug formulation divided by that of the saline standards (Reed et al., 1985).\nThe hemolytic potential of the various busulfan formulations was evaluated. […]"}, "[4]": {"test_system": "human KBM-3 myeloid leukemia cells", "assay": "In vitro cytotoxicity, MTT assay", "assay_type": "cell-based", "details": "for cells killed: 24 hours, 37° C.", "description": "In vitro Cytotoxicity of Busulfan in the DMA/PEG-400 Vehicle. Human leukemic KBM-3 cells (Anderson, et al., 1992), were incubated for 24 hours in the complete vehicle without the addition of busulfan at different concentrations (0.5%, 1.0%, 2.0%, 3.0% and […], v/v), to assay the cytotoxic properties of the 20% DMA/40% PEG-400 aqueous vehicle by itself (negative controls), or with the addition of busulfan. In parallel, cells in Iscove's modified Dulbecco medium (GIBCO, Grand Island, New York, N.Y.), supplemented with 10% fetal bovine serum, were incubated with busulfan (at 25 μg/ml and 50 μg/ml), in the 20% DMA/40% PEG-400 aqueous solvent (the resulting vehicle concentrations were 1.0 and 2.0% (v/v), respectively), or with busulfan dissolved in a small volume (≤1%, v/v) of acetone (positive controls). After 24 hours, 25 μl of a 5 mg/ml solution of MTT (3, [4,5-dimethylthiazol-2-yl]2,5-diphenyltetrazoliumbromide, obtained from Sigma Chemicals, St. Louis, MO), was added to each sample, and after an additional 2 hours of incubation at 37° C., 100 μl of extraction buffer was added (extraction buffer: 20% (w/v) SDS dissolved to saturation at 37° C. in a solution of equal parts of dimethylformamide and deionized water; the pH was adjusted to 4.7 by the use of acetic acid and 1 N HCL as described (Hansen et al., 1989). After over night incubation at 37° C., the optical densities at 570 nm were measured using a Titer-Tech 96-well multi-scanner, using the extraction buffer as the blank. The cytotoxicity was determined as the difference between the samples as above and the reactivity of cells incubated in PBS alone. All determinations were performed in triplicate.\nTo study the cytotoxic activity of busulfan in the 20% DMA/40% PEG-400 aqueous vehicle, human KBM-3 myeloid leukemia cells (Andersson et al., 1992), were exposed to either the complete vehicle at various concentrations without or with the addition of busulfan for 24 hours at 37° C. The cytotoxicity was assayed with the MTT assay (Hansen et al., 1989). […]"}, "[5]": {"assay": "Plasma pharmacokinetics of busulfan, oral tablet, oral solution and i.v. solution", "assay_type": "in vivo, Sprague-Dawley rats", "details": "in words", "from_the_text": "The present example provides the development of an efficient technique for extraction of busulfan from blood plasma, adaptation of the HPLC assay for quantitation of busulfan in the plasma extract, and studies of the in vivo plasma pharmacokinetics of busulfan when administered orally as the commercially available tablet, as an oral solution in a vehicle of 40% PEG-400, and as an intravenous injection when dissolved in a vehicle of 40% PEG-400. A comparison of the plasma pharmacokinetics of busulfan in the rat is also given after i.v. busulfan administration. The drug was dissolved at 3 mg/ml in either acetone or DMSO or the complete 20% DMA/40% PEG-400 aqueous solvent.\nRat plasma (0.2 ml) was spiked with varying concentrations of busulfan (from a stock solution in DMA), to give final drug concentrations of 0.15-3.0 μg/ml. The internal standard, 20 μl, (CGA-112913; in methanol, 20 μg/ml) was then added to the drug-plasma mixtures. After vortexing for 10 seconds, the drug and internal standard were precipitated from the plasma proteins with 0.2 ml acetonitrile with subsequent vortexing for 30 seconds. The busulfan and internal standard were then extracted using 2 ml of ethyl acetate and vortexed for 1 minute. The solutions were centrifuged for 10 minutes and 1 ml of the ethyl acetate layer was evaporated to dryness under compressed air. The busulfan and internal standard were then dissolved in 0.5 ml of distilled water and derivatized with 0.2 ml of an 8.2% (w/v) solution of diethyldithiocarbamic acid sodium and vortexed for 30 seconds.\nThe busulfan derivative, DDCB (Diethyldithiocarbamoyl butane), was subjected to solid phase extraction with Sep-Pak LC™ cartridges (Millipore Corporation, Bedford, Ill.) under vacuum. The cartridges were conditioned with three 1-ml washes of methanol followed by two 1-ml washes with distilled water. The derivatized solutions were then passed through the cartridges and the cartridges washed twice with 1 ml 50% methanol in distilled water. The DDCB and the internal standard were eluted from the columns using 250-μ1 methanol twice, followed by two washes of 0.5-ml of ethyl acetate. […]"}, "[6]": {"details": "room temperature; cited from earlier work"}, "[7]": {"details": "cited from earlier work"}, "[8]": {"details": "i.p., cited from earlier work"}, "[9]": {"details": "i.p., 2.5% carboxymethylcellulose in water; cited from earlier work"}},
  "note": "Entries after “also recorded” stand apart in the source; their conditions may differ.",
  "data": [
    {"molecule": "cyclodextrins", "values": [
      {"measurement": "hemolysis LD50", "setting": "erythrocytes; Yoshida et al., 1988", "value": "about 2 % (w/v)"}
    ]},
    {"molecule": "CS(=O)(=O)OCCCCOS(C)(=O)=O", "note": "[busulfan, 1,4-bis-(methanesulfonoxyl)butane]", "values": [
      {"measurement": "solubility", "setting": "[1]", "value": 25, "unit": "mg/mL"},
      {"measurement": "solubility", "setting": "[2]", "value": 75, "unit": "mg/mL"},
      {"measurement": "onset of degradation", "setting": "[3]; 25 mg/ml in DMA, 40° C.", "value": "around 3 weeks"},
      {"measurement": "degradation at 15 weeks", "setting": "[3]; 25 mg/ml in DMA, 40° C., 15 weeks, 151200 min", "value": "about 50%"},
      {"measurement": "stability in DMSO", "setting": "[3]; DMSO, in words", "value": "rapidly degrades busulfan"},
      {"measurement": "contribution of busulfan to hemolysis", "setting": "human erythrocytes", "value": "did not add significantly to the overall hemolytic effect; also recorded: insignificant"},
      {"measurement": "cytotoxic activity in vehicle", "setting": "[4]; 20% DMA/40% PEG-400 aqueous vehicle vs acetone, in words", "value": "retained its cytotoxic activity"},
      {"measurement": "cells killed", "setting": "[4]; busulfan 25 μg/ml in 20% DMA/40% PEG-400 aqueous vehicle", "value": "about 50%"},
      {"measurement": "cells killed", "setting": "[4]; busulfan 50 μg/ml in 20% DMA/40% PEG-400 aqueous vehicle", "value": "approximately 80%"},
      {"measurement": "absorption, non-fasting vs fasting animals", "setting": "[5]; oral", "value": "non-fasting animals seem to absorb more drug than fasting subjects"},
      {"measurement": "bioavailability / plasma concentrations vs oral preparations", "setting": "[5]; parenteral vs oral", "value": "higher after parenteral administration than after oral dosing"},
      {"measurement": "AUC, parenteral vs standard tablet in non-fasting animals", "setting": "[5]; ratio", "value": "about five times higher"},
      {"measurement": "peak plasma concentration, parenteral vs standard tablet in non-fasting animals", "setting": "[5]; ratio", "value": "approximately ten times higher"},
      {"measurement": "solubility in water", "setting": "[6]", "value": 0.025, "unit": "mg/mL"},
      {"measurement": "liver toxicity", "setting": "[7]; oral, high dose combinations", "value": "veno-occlusive disease (VOD) of the liver, leading to fatal liver failure"},
      {"measurement": "neurological and gastrointestinal side effects", "setting": "[7]; oral, high dose", "value": "grand mal seizures and severe nausea and vomiting"},
      {"measurement": "myelosuppression", "setting": "[7]; prolonged administration", "value": "occasionally severe, sometimes even irreversible myelosuppression"},
      {"measurement": "hemolysis by busulfan itself", "setting": "erythrocytes; Bishop et al., 1986", "value": "shown to cause hemolysis"},
      {"measurement": "platelet dysfunction", "setting": "[8]; in polyethyleneglycol, 60 mg/kg", "value": "induce platelet dysfunction"},
      {"measurement": "toxicity of intraperitoneal administration", "setting": "[8]", "value": "very toxic and causes significant local tissue damage"},
      {"measurement": "local toxicity of intraperitoneal injection", "setting": "[9]", "value": "causes significant local tissue damage"}
    ]}
  ]
}
